Test results taken from patent US20260022142A1, “MACROCYCLIC IMMUNOMODULATORS” (Bristol-Myers Squibb Company, priority 2022, published 2026).
Bridge positions count the residues as written; N and C are the ends. Square brackets hold non-standard residues; d marks the D form. Peptide text beside a SMILES is read from it. * marks the point of attachment. ξ: configuration not given here. Bip = N[C@@H](Cc1ccc(-c2ccccc2)cc1)C(=O)O; Phe(3-Me) = Cc1cccc(C[C@H](N)C(=O)O)c1; Cha = N[C@@H](CC1CCCCC1)C(=O)O; Cit = NC(=O)NCCC[C@H](N)C(=O)O; Carboxymethyl = O=C(O)C*; Orn = NCCC[C@H](N)C(=O)O; Aun = NCCCCCCCCCCC(=O)O; Dab = NCC[C@H](N)C(=O)O; Dap = NC[C@H](N)C(=O)O; AEEA = NCCOCCOCC(=O)O; ξC = NC(CS)C(=O)O

Biological target: T1, PD-1/PD-L1 interaction (PE-labeled human PD-L1-Ig binding to Jurkat cell line over-expressing human PD-1) (Homo sapiens, UniProt Q15116)
T1 construct: expressed in transfected cells; host or cells: Jurkat
Test: Jurkat-PD-1 Cell Binding High-Content Screening Assay (CBA)
Format: cell-based
Details: Jurkat cell line over-expressing human PD-1; PE-labeled PD-L1-Ig 20 nM final; read-out: Jurkat hPD1-PDL1 IC50
Method in brief: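 First, compound is added to PD-1-expressing Jurkat cells in serum-containing DMEM and left 2 h at 37° C. Next, PE-conjugated PD-L1-Ig is introduced at 20 nM final concentration for 1 hour. Finally, cells are fixed in 4% paraformaldehyde with Hoechst 33342, washed and imaged.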

T1 sequence (Q15116 25-288): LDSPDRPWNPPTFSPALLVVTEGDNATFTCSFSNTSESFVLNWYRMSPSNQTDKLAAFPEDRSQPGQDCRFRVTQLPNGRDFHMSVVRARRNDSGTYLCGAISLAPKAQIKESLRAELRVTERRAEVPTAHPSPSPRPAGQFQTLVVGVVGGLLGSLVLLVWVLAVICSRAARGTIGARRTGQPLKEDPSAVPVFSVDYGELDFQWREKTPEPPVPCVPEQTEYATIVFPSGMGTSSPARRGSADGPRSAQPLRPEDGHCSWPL

With CC[C@H](C)[C@@H]1NC(=O)[C@H](Cc2ccc(-c3ccccc3)cc2)NC(=O)[C@H](C(C)C)NC(=O)[C@H](Cc2cccc(C)c2)NC(=O)[C@H](CC(=O)O)NC(=O)[C@H](Cc2ccc(OCC(=O)O)cc2)NC(=O)[C@H](CN)NC(=O)CSC[C@@H](C(=O)N[C@@H](CCCCN)C(=O)NCCCCCCCCCCC(=O)O)NC(=O)[C@H](CN)NC(=O)[C@H](C(C)C)NC(=O)[C@H](CC2CCCCC2)NC(=O)[C@H](CCN)NC(=O)[C@@H](CC(C)C)NC(=O)[C@H](CCCN)NC1=O [Compound 2638] ({CH2CO}-[Dap]Y(Carboxymethyl)D[Phe(3-Me)]V[Bip]I[Orn][dL][Dab][Cha]V[Dap]CK[Aun]-OH; thioether N-14) the IC50 was 19 nM.

For CC[C@H](C)[C@@H]1NC(=O)[C@H](Cc2ccc(-c3ccccc3)cc2)NC(=O)[C@H](C(C)C)NC(=O)[C@H](Cc2cccc(C)c2)NC(=O)[C@H](CC(=O)O)NC(=O)[C@H](Cc2ccc(OCC(=O)O)cc2)NC(=O)[C@H](CN)NC(=O)CSC[C@@H](C(=O)N[C@@H](CCCCN)C(=O)NCCCCCCCCCCC(=O)O)NC(=O)[C@H](CCCN)NC(=O)[C@H](C(C)C)NC(=O)[C@H](CC2CCCCC2)NC(=O)[C@H](CCN)NC(=O)[C@@H](CC(C)C)NC(=O)[C@H](CCCN)NC1=O [Compound 2640] ({CH2CO}-[Dap]Y(Carboxymethyl)D[Phe(3-Me)]V[Bip]I[Orn][dL][Dab][Cha]V[Orn]CK[Aun]-OH; thioether N-14), the IC50 was 8.1 nM.

Compound Cc1cccc(C[C@@H]2NC(=O)[C@H](CC(=O)O)NC(=O)[C@H](Cc3ccc(OCC(=O)O)cc3)NC(=O)[C@H](CN)NC(=O)CSC[C@@H](C(=O)N[C@@H](CCCCN)C(=O)NCCCCCCCCCCC(=O)O)NC(=O)[C@H](CCCNC(N)=O)NC(=O)[C@H](C(C)C)NC(=O)[C@H](CC3CCCCC3)NC(=O)[C@H](CCN)NC(=O)[C@@H](CC(C)C)NC(=O)[C@H](CCCN)NC(=O)[C@H](CCCNC(N)=O)NC(=O)[C@H](Cc3ccc(-c4ccccc4)cc3)NC(=O)[C@H](C(C)C)NC2=O)c1 [Compound 2641] ({CH2CO}-[Dap]Y(Carboxymethyl)D[Phe(3-Me)]V[Bip][Cit][Orn][dL][Dab][Cha]V[Cit]CK[Aun]-OH; thioether N-14) has an IC50 of 27.7 nM.

Work on CC(C)C[C@H]1NC(=O)[C@H](CCCN)NC(=O)[C@H](CCCNC(N)=O)NC(=O)[C@H](Cc2ccc(-c3ccccc3)cc2)NC(=O)[C@H](C(C)C)NC(=O)[C@H](Cc2c[nH]c3ccccc23)NC(=O)[C@H](CC(=O)O)NC(=O)[C@H](Cc2ccc(OCC(=O)O)cc2)NC(=O)[C@H](CN)NC(=O)CSCC(C(=O)NCCOCCOCC(=O)NCCCCCCCCCCC(=O)O)NC(=O)[C@H](CCCCN)NC(=O)[C@H](C(C)C)NC(=O)[C@H](CC2CCCCC2)NC(=O)[C@H](CCN)NC1=O (stereo partly drawn) [Compound 2643] ({CH2CO}-[Dap]Y(Carboxymethyl)DWV[Bip][Cit][Orn][dL][Dab][Cha]VK[ξC][AEEA][Aun]-OH; thioether N-14) yielded an IC50 of 7.2 nM.

CC[C@H](C)[C@@H]1NC(=O)[C@H](Cc2ccc(-c3ccccc3)cc2)NC(=O)[C@H](C(C)C)NC(=O)[C@H](Cc2c[nH]c3ccccc23)NC(=O)[C@H](CC(=O)O)NC(=O)[C@H](Cc2ccc(OCC(=O)O)cc2)NC(=O)[C@H](CN)NC(=O)CSCC(C(=O)NCCOCCOCC(=O)NCCCCCCCCCCC(=O)O)NC(=O)[C@H](CCCCN)NC(=O)[C@H](C(C)C)NC(=O)[C@H](CC2CCCCC2)NC(=O)[C@H](CCN)NC(=O)[C@@H](CC(C)C)NC(=O)[C@H](CCCN)NC1=O (stereo partly drawn) [Compound 2644] ({CH2CO}-[Dap]Y(Carboxymethyl)DWV[Bip]I[Orn][dL][Dab][Cha]VK[ξC][AEEA][Aun]-OH; thioether N-14) was tested, and the IC50 was 9.4 nM.
